From US10765114B2, “4-amino-6-(pyridyl and 2-substitutedphenyl)-picolinates and 6-amino-2-(pyridyl and 2-substitutedphenyl)-pyrimidine-4-carboxylates and their use as herbicides” (Dow AgroSciences LLC, priority 2013, dated 2020)

Experiments:
Experiment in all cases: Post-Emergent Test III (Wheat and Barley)
POLCO (wild buckwheat) = type: in vivo, Polygonum convolvulus; conditions: for Visual Growth Reduction (%) 21 Days After Application, POLCO: POLCO wild buckwheat (Polygonum convolvulus), post-emergent
Protocol: (§1) Seeds of the desired test plant species were planted in Sun Gro MetroMix® 306 planting mixture, which typically has a pH of 6.0 to 6.8 and an organic matter content of about 30 percent, in plastic pots with a surface area of 103.2 square centimeters (cm^2). When required to ensure good germination and healthy plants, a fungicide treatment and/or other chemical or physical treatment was applied. The plants were grown for 7-36 days in a greenhouse with an approximate 14 h photoperiod which was maintained at about 18° C. during the day and 17° C. during the night. Nutrients and water were added on a regular basis and supplemental lighting was provided with overhead metal halide 1000-Watt lamps as necessary. The plants were employed for testing when they reached the second or third true leaf stage.
(§2) A weighed amount, determined by the highest rate to be tested, of each test compound was placed in a 25 mL glass vial and was dissolved in 4 mL of a 97:3 v/v mixture of acetone and DMSO to obtain concentrated stock solutions. […] The concentrated stock solutions obtained were diluted with 20 mL of an aqueous mixture containing acetone, water, isopropyl alcohol, DMSO, Agri-Dex crop oil concentrate, and X-77 surfactant in a 48:39:10:1.5:1.5:0.02 v/v ratio to obtain spray solutions containing the highest application rates. Additional application rates were obtained by serial dilution of 12 mL of the high rate solution into a solution containing 2 mL of 97:3 v/v mixture of acetone and DMSO and 10 mL of an aqueous mixture containing acetone, water, isopropyl alcohol, DMSO, Agri-Dex crop oil concentrate, and X-77 surfactant in a 48:39:10:1.5:1.5:0.02 v/v ratio to obtain ½×, ¼×, ⅛× and 1/16× rates of the high rate. Compound requirements are based upon a 12 mL application volume at a rate of 187 liters per hectare (L/ha). Formulated compounds were applied to the plant material with an overhead Mandel track sprayer equipped with 8002E nozzles calibrated to deliver 187 L/ha over an application area of 0.503 square meters at a spray height of 18 inches (43 cm) above the average plant canopy height. Control plants were sprayed in the same manner with the solvent blank.
(§3) The treated plants and control plants were placed in a greenhouse as described above and watered by subirrigation to prevent wash-off of the test compounds. After 21 dAYS, the condition of the test plants as compared with that of the untreated plants was determined visually and scored on a scale of 0 to 100 percent where 0 corresponds to no injury and 100 corresponds to complete kill and presented as indicated in Table A.
(§4) By applying the well-accepted probit analysis as described by J. Berkson in Journal of the American Statistical Society, 48, 565 (1953) and by D. Finney in “Probit Analysis” Cambridge University Press (1952), herbicidal injury of a specific compound at various rates can be used to calculate GR10, GR20, GR50, GR80 and GR90 values, which are defined as growth reduction factors that correspond to the effective dose of herbicide required to provide plant growth reduction (GR) of 10 percent, 20 percent, 50 percent, 80 percent and 90 percent, respectively. Probit analysis was applied to data collected from multiple dose rates of individual compounds utilizing the procedures explained in the following examples. The analysis of those dose rates is captured in the following tables.

KCHSC (kochia) = type: in vivo, Kochia scoparia
Protocol: as §1, §2, §3, §4

PAPRH (common poppy) = type: in vivo, Papaver rhoeas; conditions: for Visual Growth Reduction (%) 21 Days After Application, PAPRH: PAPRH common poppy (Papaver rhoeas), post-emergent
Protocol: as §1, §2, §3, §4

HORSS = type: in vivo; conditions: crop; for Visual Growth Reduction (%) 21 Days After Application, HORSS: HORSS barley (Hordeum vulgare), post-emergent
Protocol: as §1, §2, §3, §4

TRZSS = type: in vivo; conditions: crop; for Visual Growth Reduction (%) 21 Days After Application, TRZSS: TRZSS wheat (Triticum aestivum), post-emergent
Protocol: as §1, §2, §3, §4

SASKR (Russian thistle) = type: in vivo, Salsola tragus; conditions: for Visual Growth Reduction (%) 21 Days After Application, SASKR: SASKR Russian thistle (Salsola iberica), post-emergent
Protocol: as §1, §2, §3, §4

[1] = system: LAMPU (purple deadnettle); type: in vivo, Lamium purpureum; conditions: for Visual Growth Reduction (%) 21 Days After Application, LAMPU: LAMPU purple deadnettle (Lamium purpureum), post-emergent
Protocol: as §1, §2, §3, §4

[2] = system: VERPE (Persian speedwell); type: in vivo, Veronica persica; conditions: for Visual Growth Reduction (%) 21 Days After Application, VERPE: VERPE bird's-eye speedwell (Veronica persica), post-emergent
Protocol: as §1, §2, §3, §4

Nc1cc(-c2ccc(Cl)c(Cl)c2Cl)nc(C(=O)O)c1Cl [Compound 93]
Visual Growth Reduction (%) 21 Days After Application, POLCO (POLCO (wild buckwheat); 17.5 g ai/ha): B (85-94)
Visual Growth Reduction (%) 21 Days After Application, POLCO (POLCO (wild buckwheat); 35 g ai/ha): B (85-94)
Visual Growth Reduction (%) 21 Days After Application, POLCO (POLCO (wild buckwheat); 70 g ai/ha): A (95-100)
GR50, POLCO (POLCO (wild buckwheat); POLCO, growth reduction of 50%, probit analysis, 21 days): 2 g ai/ha
GR80, POLCO (POLCO (wild buckwheat); POLCO, growth reduction of 80%, probit analysis, 21 days): 7 g ai/ha
GR90, POLCO (POLCO (wild buckwheat); POLCO, growth reduction of 90%, probit analysis, 21 days): 13 g ai/ha
pest or weed control at 17.5 g/ha (KCHSC (kochia); Bassia scoparia, post-emergence, 504 h, KCHSC kochia (Kochia scoparia), 17.5 g ai/ha, post-emergent, read-out: Visual Growth Reduction (%) 21 Days After Application, KCHSC): 85 to 94%
pest or weed control at 35 g/ha (KCHSC (kochia); Bassia scoparia, post-emergence, 504 h, KCHSC kochia (Kochia scoparia), 35 g ai/ha, post-emergent, read-out: Visual Growth Reduction (%) 21 Days After Application, KCHSC): 85 to 94%
pest or weed control at 70 g/ha (KCHSC (kochia); Bassia scoparia, post-emergence, 504 h, KCHSC kochia (Kochia scoparia), 70 g ai/ha, post-emergent, read-out: Visual Growth Reduction (%) 21 Days After Application, KCHSC): 95 to 100%
GR50, KCHSC (KCHSC (kochia); KCHSC, growth reduction of 50%, probit analysis, 21 days): 2 g ai/ha
GR80, KCHSC (KCHSC (kochia); KCHSC, growth reduction of 80%, probit analysis, 21 days): 10 g ai/ha
GR90, KCHSC (KCHSC (kochia); KCHSC, growth reduction of 90%, probit analysis, 21 days): 27 g ai/ha
Visual Growth Reduction (%) 21 Days After Application, PAPRH (PAPRH (common poppy); 17.5 g ai/ha): C (75-84)
Visual Growth Reduction (%) 21 Days After Application, PAPRH (PAPRH (common poppy); 35 g ai/ha): C (75-84)
Visual Growth Reduction (%) 21 Days After Application, PAPRH (PAPRH (common poppy); 70 g ai/ha): B (85-94)
GR50, PAPRH (PAPRH (common poppy); PAPRH, growth reduction of 50%, probit analysis, 21 days): 1 g ai/ha
GR80, PAPRH (PAPRH (common poppy); PAPRH, growth reduction of 80%, probit analysis, 21 days): 27 g ai/ha
GR90, PAPRH (PAPRH (common poppy); PAPRH, growth reduction of 90%, probit analysis, 21 days): >140 g ai/ha
Visual Growth Reduction (%) 21 Days After Application, HORSS (HORSS; 17.5 g ai/ha): C (75-84)
Visual Growth Reduction (%) 21 Days After Application, HORSS (HORSS; 35 g ai/ha): B (85-94)
Visual Growth Reduction (%) 21 Days After Application, HORSS (HORSS; 70 g ai/ha): B (85-94)
GR10, HORSS (HORSS; HORSS barley, growth reduction of 10%, probit analysis, 21 days): 1 g ai/ha
GR20, HORSS (HORSS; HORSS barley, growth reduction of 20%, probit analysis, 21 days): 1 g ai/ha
Visual Growth Reduction (%) 21 Days After Application, TRZSS (TRZSS; 17.5 g ai/ha): C (75-84)
Visual Growth Reduction (%) 21 Days After Application, TRZSS (TRZSS; 35 g ai/ha): B (85-94)
Visual Growth Reduction (%) 21 Days After Application, TRZSS (TRZSS; 70 g ai/ha): B (85-94)
GR10, TRZSS (TRZSS; TRZSS wheat, growth reduction of 10%, probit analysis, 21 days): 1 g ai/ha
GR20, TRZSS (TRZSS; TRZSS wheat, growth reduction of 20%, probit analysis, 21 days): 1 g ai/ha
Visual Growth Reduction (%) 21 Days After Application, SASKR (SASKR (Russian thistle); 17.5 g ai/ha): B (85-94)
Visual Growth Reduction (%) 21 Days After Application, SASKR (SASKR (Russian thistle); 35 g ai/ha): B (85-94)
Visual Growth Reduction (%) 21 Days After Application, SASKR (SASKR (Russian thistle); 70 g ai/ha): B (85-94)
GR50, SASKR (SASKR (Russian thistle); SASKR, growth reduction of 50%, probit analysis, 21 days): 1 g ai/ha
GR80, SASKR (SASKR (Russian thistle); SASKR, growth reduction of 80%, probit analysis, 21 days): 10 g ai/ha
GR90, SASKR (SASKR (Russian thistle); SASKR, growth reduction of 90%, probit analysis, 21 days): 34 g ai/ha
Visual Growth Reduction (%) 21 Days After Application, LAMPU ([1]; 17.5 g ai/ha): A (95-100)
Visual Growth Reduction (%) 21 Days After Application, LAMPU ([1]; 35 g ai/ha): A (95-100)
Visual Growth Reduction (%) 21 Days After Application, LAMPU ([1]; 70 g ai/ha): A (95-100)
GR50, LAMPU ([1]; LAMPU, growth reduction of 50%, probit analysis, 21 days): 1 g ai/ha
GR80, LAMPU ([1]; LAMPU, growth reduction of 80%, probit analysis, 21 days): 2 g ai/ha
GR90, LAMPU ([1]; LAMPU, growth reduction of 90%, probit analysis, 21 days): 8 g ai/ha
Visual Growth Reduction (%) 21 Days After Application, VERPE ([2]; 17.5 g ai/ha): E (45-59)
Visual Growth Reduction (%) 21 Days After Application, VERPE ([2]; 35 g ai/ha): D (60-74)
Visual Growth Reduction (%) 21 Days After Application, VERPE ([2]; 70 g ai/ha): D (60-74)
GR50, VERPE ([2]; VERPE, growth reduction of 50%, probit analysis, 21 days): 24 g ai/ha
GR80, VERPE ([2]; VERPE, growth reduction of 80%, probit analysis, 21 days): >140 g ai/ha
GR90, VERPE ([2]; VERPE, growth reduction of 90%, probit analysis, 21 days): >140 g ai/ha
